Source: PubChem BioAssay AID328 (DTP/NCI, 2004)
“And” between values parts separate entries of the source, which are not always exact repeats. Equal entries are not always repeated. Toxic doses and inconclusive results are not listed.

Tested on: BDF1 mice, P388 leukemia ip, median survival T/C
Experiment: NCI In Vivo Anticancer Drug Screen. Data for tumor model P388 Leukemia (intraperitoneal) in B6D2F1 (BDF1) mice
Details: endpoint: median survival time, higher = longer survival
Method in brief: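 Antitumour effect was judged in vivo: survival in drug-treated mice, normalised to that of vehicle-dosed controls, gives the reported T/C.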

[1] = dose: 50.0 mg/kg/injection, schedule: Q01DX009 (ip), vehicle: saline

SMILES: NC(=O)CCCNC(=O)CCC[c-]1[c-][c-][c-][c-]1.[Fe].[c-]1[c-][c-][cH-][c-]1
- T/C (dose: 6.25 mg/kg/injection, schedule: Q01DX009 (ip), vehicle: other): 100 % of control
- T/C (dose: 12.5 mg/kg/injection, schedule: Q01DX009 (ip), vehicle: other): 98 % of control
- T/C (dose: 25.0 mg/kg/injection, schedule: Q01DX009 (ip), vehicle: other): 100 % of control
- T/C (dose: 50.0 mg/kg/injection, schedule: Q01DX009 (ip), vehicle: other): 114 % of control
- T/C (dose: 100.0 mg/kg/injection, schedule: Q01DX009 (ip), vehicle: other): 121 % of control

SMILES: CCOc1cc(/C=N\Nc2nncn2N)ccc1N(CCCl)CCCl
- T/C (dose: 0.8 mg/kg/injection, schedule: Q04DX003 (ip), vehicle: saline with Tween-80): 113 % of control
- T/C (dose: 3.0 mg/kg/injection, schedule: Q04DX003 (ip), vehicle: saline with Tween-80): 154 % of control
- T/C (dose: 5.0 mg/kg/injection, schedule: Q04DX003 (ip), vehicle: saline with Tween-80): 169 % of control
- T/C (dose: 8.0 mg/kg/injection, schedule: Q04DX003 (ip), vehicle: saline with Tween-80): 165 % of control
- T/C (dose: 10.0 mg/kg/injection, schedule: Q04DX003 (ip), vehicle: saline with Tween-80): 210 % of control
- T/C (dose: 12.0 mg/kg/injection, schedule: Q04DX003 (ip), vehicle: saline with Tween-80): 203 % of control
- T/C (dose: 18.0 mg/kg/injection, schedule: Q04DX003 (ip), vehicle: saline with Tween-80): 278 % of control and 154 % of control
- T/C (dose: 20.0 mg/kg/injection, schedule: Q04DX003 (ip), vehicle: saline with Tween-80): 275 % of control
- T/C (dose: 26.0 mg/kg/injection, schedule: Q04DX003 (ip), vehicle: saline with Tween-80): 300 % of control and 163 % of control
- T/C (dose: 40.0 mg/kg/injection, schedule: Q04DX003 (ip), vehicle: saline with Tween-80): 300 % of control and 105 % of control and 213 % of control

SMILES: Cc1cc2nc3c(=O)[nH]c(=O)nc-3n(CC(O)C(O)C(O)C(O)CO)c2cc1C (stereo not drawn)
- T/C (dose: 25.0 mg/kg/injection, schedule: Q01DX010 (ip), vehicle: saline): 109 % of control
- T/C (dose: 50.0 mg/kg/injection, schedule: Q01DX010 (ip), vehicle: saline): 95 % of control and 100 % of control
- T/C (dose: 100.0 mg/kg/injection, schedule: Q01DX010 (ip), vehicle: saline): 90 % of control and 95 % of control and 104 % of control
- T/C (dose: 200.0 mg/kg/injection, schedule: Q01DX010 (ip), vehicle: saline): 100 % of control and 114 % of control
- T/C (dose: 400.0 mg/kg/injection, schedule: Q01DX010 (ip), vehicle: saline): 104 % of control and 110 % of control and 114 % of control

SMILES: CCOc1ccc(C(=O)Nc2c(C)cc(C)cc2C)cc1
- T/C (dose: 100.0 mg/kg/injection, schedule: Q04DX003 (ip), vehicle: saline with Tween-80): 96 % of control
- T/C (dose: 200.0 mg/kg/injection, schedule: Q04DX003 (ip), vehicle: saline with Tween-80): 112 % of control
- T/C (dose: 400.0 mg/kg/injection, schedule: Q04DX003 (ip), vehicle: saline with Tween-80): 104 % of control

SMILES: Cc1ccc(NC(=O)NCCCOc2ccc(N3C(N)=NC(N)=NC3(C)C)cc2Cl)cc1S(=O)(=O)F
- T/C (dose: 45.0 mg/kg/injection, schedule: Q04DX003 (ip), vehicle: saline): 100 % of control
- T/C [1]: 155 % of control
- T/C (dose: 65.0 mg/kg/injection, schedule: Q04DX003 (ip), vehicle: saline): 109 % of control
- T/C (dose: 75.0 mg/kg/injection, schedule: Q01DX009 (ip), vehicle: saline): 150 % of control and 155 % of control
- T/C (dose: 100.0 mg/kg/injection, schedule: Q04DX003 (ip), vehicle: saline): 122 % of control
- T/C (dose: 110.0 mg/kg/injection, schedule: Q01DX009 (ip), vehicle: saline): 160 % of control
- T/C (dose: 150.0 mg/kg/injection, schedule: Q01DX009 (ip), vehicle: saline): 90 % of control
- T/C (dose: 200.0 mg/kg/injection, schedule: Q04DX003 (ip), vehicle: saline): 186 % of control

SMILES: OCCN1CCN(CCCN2c3ccccc3Sc3cccnc32)CC1
- T/C (dose: 12.5 mg/kg/injection, schedule: Q01DX009 (ip), vehicle: saline): 104 % of control
- T/C (dose: 18.75 mg/kg/injection, schedule: Q04DX003 (ip), vehicle: saline): 96 % of control
- T/C (dose: 25.0 mg/kg/injection, schedule: Q01DX009 (ip), vehicle: saline): 108 % of control and 110 % of control
- T/C (dose: 37.5 mg/kg/injection, schedule: Q04DX003 (ip), vehicle: saline): 107 % of control
- T/C [1]: 122 % of control

SMILES: CC1([CH2][Hg][I])CS(=O)(=O)CC(C)([CH2][Hg][I])O1 (stereo not drawn)
- T/C (dose: 5.0 mg/kg/injection, schedule: Q01DX010 (ip), vehicle: carboxymethylcellulose (CMC)): 104 % of control
- T/C (dose: 10.0 mg/kg/injection, schedule: Q01DX010 (ip), vehicle: carboxymethylcellulose (CMC)): 109 % of control
